Source: patent US20020111274A1, “1-alkyl-3-[1-(substituted phenyl) benzotriazol-6-yl] uracils” (BASF Aktiengesellschaft, priority 2000, published 2002)

Tests used:
Design in all cases: scale not given here
ECHOG Barnyardgrass [1] = test: Postemergence herbicidal evaluation, ECHOG; format: in vivo, Echinochloa crus-galli, (L.) Beau; settings: postemergence spray, rated about two-three weeks after treatment
In short: (§1)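 For this test, compound in an 80/20 acetone/water vehicle with 1.0% seed oil was sprayed over two-week-old seedlings at about 0.006 to 0.400 kg per hectare. Injury was assessed visually two to three weeks on.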

[2] = system: IPOHE Morningglory, Ivyleaf; test: Postemergence herbicidal evaluation, IPOHE; format: in vivo, Ipomoea hederacea, (L.) Jacq.; settings: postemergence spray, rated about two-three weeks after treatment
In short: as §1

CASOB Sicklepod [3] = test: Postemergence herbicidal evaluation, CASOB; format: in vivo, Cassia obtusifolia, L.; settings: postemergence spray, rated about two-three weeks after treatment
In short: as §1

SETVI Foxtail, Green [4] = test: Postemergence herbicidal evaluation, SETVI; format: in vivo, Setaria viridis, (L.) Beau; settings: postemergence spray, rated about two-three weeks after treatment
In short: as §1

ABUTH Velvetleaf [5] = test: Postemergence herbicidal evaluation, ABUTH; format: in vivo, Abutilon theophrasti, Medic.; settings: postemergence spray, rated about two-three weeks after treatment
In short: as §1

[6] = system: CHEAL Lambsquarters, Common; test: Preemergence herbicidal evaluation, CHEAL; format: in vivo, Chenopodium album, L.; settings: preemergence
In short: (§2)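 Compound applied preemergence as an aqueous acetone spray onto freshly planted cups, dose equivalent approx. 0.013 to 0.800 kg/ha. Evaluation by rating at weeks 4–5.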

[7] = system: TRZAWR Wheat, Winter, cv Riband; test: Postemergence herbicidal evaluation, TRZAWR; format: in vivo, Triticum aestivum; settings: postemergence spray, rated about two-three weeks after treatment
In short: as §1

ABUTH Velvetleaf [8] = test: Preemergence herbicidal evaluation, ABUTH; format: in vivo, Abutilon theophrasti, Medic.; settings: preemergence
In short: as §2

GALAP Galium [9] = test: Preemergence herbicidal evaluation, GALAP; format: in vivo, Galium aparine; settings: preemergence
In short: as §2

[10] = system: CHEAL Lambsquarters, Common; test: Postemergence herbicidal evaluation, CHEAL; format: in vivo, Chenopodium album, L.; settings: postemergence spray, rated about two-three weeks after treatment
In short: as §1

GALAP Galium [11] = test: Postemergence herbicidal evaluation, GALAP; format: in vivo, Galium aparine; settings: postemergence spray, rated about two-three weeks after treatment
In short: as §1

ECHOG Barnyardgrass [12] = test: Preemergence herbicidal evaluation, ECHOG; format: in vivo, Echinochloa crus-galli, (L.) Beau; settings: preemergence
In short: as §2

AMBEL Ragweed, Common [13] = test: Postemergence herbicidal evaluation, AMBEL; format: in vivo, Ambrosia artemisifolia, L.; settings: postemergence spray, rated about two-three weeks after treatment
In short: as §1

CASOB Sicklepod [14] = test: Preemergence herbicidal evaluation, CASOB; format: in vivo, Cassia obtusifolia, L.; settings: preemergence
In short: as §2

GLXMAW Soybean, Williams [15] = test: Postemergence herbicidal evaluation, GLXMAW; format: in vivo, Glycine max, (L.) Merr. cv Williams; settings: postemergence spray, rated about two-three weeks after treatment
In short: as §1

GLXMAW Soybean, Williams [16] = test: Preemergence herbicidal evaluation, GLXMAW; format: in vivo, Glycine max, (L.) Merr. cv Williams; settings: preemergence
In short: as §2

ORYSAT Rice, Tebonnet [17] = test: Postemergence herbicidal evaluation, ORYSAT; format: in vivo, Oryza sativa, (L.); settings: postemergence spray, rated about two-three weeks after treatment
In short: as §1

ORYSAT Rice, Tebonnet [18] = test: Preemergence herbicidal evaluation, ORYSAT; format: in vivo, Oryza sativa, (L.); settings: preemergence
In short: as §2

SETVI Foxtail, Green [19] = test: Preemergence herbicidal evaluation, SETVI; format: in vivo, Setaria viridis, (L.) Beau; settings: preemergence
In short: as §2

ZEAMX Corn, Field [20] = test: Postemergence herbicidal evaluation, ZEAMX; format: in vivo, Zea mays, L. (Sammel-Bezeichnung); settings: postemergence spray, rated about two-three weeks after treatment
In short: as §1

ZEAMX Corn, Field [21] = test: Preemergence herbicidal evaluation, ZEAMX; format: in vivo, Zea mays, L. (Sammel-Bezeichnung); settings: preemergence
In short: as §2

AMBEL Ragweed, Common [22] = test: Preemergence herbicidal evaluation, AMBEL; format: in vivo, Ambrosia artemisifolia, L.; settings: preemergence
In short: as §2

[23] = system: TRZAWR Wheat, Winter, cv Riband; test: Preemergence herbicidal evaluation, TRZAWR; format: in vivo, Triticum aestivum; settings: preemergence
In short: as §2

[24] = system: IPOHE Morningglory, Ivyleaf; test: Preemergence herbicidal evaluation, IPOHE; format: in vivo, Ipomoea hederacea, (L.) Jacq.; settings: preemergence
In short: as §2

## COC(=O)C(C)Oc1ccc(C)cc1-n1nnc2cc(F)c(-n3c(=O)cc(C(F)(F)F)n(C)c3=O)cc21 (centres unmarked) [Example 41]
ECHOG Barnyardgrass [1]; 0.008 kg/ha
  Postemergence herbicidal rating ECHCG: 6.
ECHOG Barnyardgrass [1]; 0.016 kg/ha
  Postemergence herbicidal rating ECHCG: 9.0
ECHOG Barnyardgrass [1]; 0.032 kg/ha
  Postemergence herbicidal rating ECHCG: 9.0
ECHOG Barnyardgrass [1]; 0.062 kg/ha
  Postemergence herbicidal rating ECHCG: 9.0
[2]; 0.008 kg/ha
  Postemergence herbicidal rating IPOHE: 9.0
[2]; 0.016 kg/ha
  Postemergence herbicidal rating IPOHE: 9.0
[2]; 0.032 kg/ha
  Postemergence herbicidal rating IPOHE: 9.0
[2]; 0.062 kg/ha
  Postemergence herbicidal rating IPOHE: 9.0
CASOB Sicklepod [3]; 0.008 kg/ha
  Postemergence herbicidal rating CASOB: 1.0
CASOB Sicklepod [3]; 0.016 kg/ha
  Postemergence herbicidal rating CASOB: 3.0
CASOB Sicklepod [3]; 0.032 kg/ha
  Postemergence herbicidal rating CASOB: 4.0
CASOB Sicklepod [3]; 0.062 kg/ha
  Postemergence herbicidal rating CASOB: 9.0
SETVI Foxtail, Green [4]; 0.008 kg/ha
  Postemergence herbicidal rating SETVI: 7.0
SETVI Foxtail, Green [4]; 0.016 kg/ha
  Postemergence herbicidal rating SETVI: 9.0
SETVI Foxtail, Green [4]; 0.032 kg/ha
  Postemergence herbicidal rating SETVI: 9.0
SETVI Foxtail, Green [4]; 0.062 kg/ha
  Postemergence herbicidal rating SETVI: 9.0
ABUTH Velvetleaf [5]; 0.008 kg/ha
  Postemergence herbicidal rating ABUTH: 9.0
ABUTH Velvetleaf [5]; 0.016 kg/ha
  Postemergence herbicidal rating ABUTH: 9.0
ABUTH Velvetleaf [5]; 0.032 kg/ha
  Postemergence herbicidal rating ABUTH: 9.0
ABUTH Velvetleaf [5]; 0.062 kg/ha
  Postemergence herbicidal rating ABUTH: 9.0
[6]; rate 0.016 kg/ha
  CHEAL herbicidal rating: 4.0
[6]; rate 0.032 kg/ha
  CHEAL herbicidal rating: 9.0
[6]; rate 0.062 kg/ha
  CHEAL herbicidal rating: 9.0
[6]; rate 0.125 kg/ha
  CHEAL herbicidal rating: 9.0
[7]; 0.008 kg/ha
  Postemergence herbicidal rating TRZAWR: 6.0
[7]; 0.016 kg/ha
  Postemergence herbicidal rating TRZAWR: 7.0
[7]; 0.032 kg/ha
  Postemergence herbicidal rating TRZAWR: 8.0
[7]; 0.062 kg/ha
  Postemergence herbicidal rating TRZAWR: 8.0
ABUTH Velvetleaf [8]; rate 0.016 kg/ha
  ABUTH herbicidal rating: 4.0
ABUTH Velvetleaf [8]; rate 0.032 kg/ha
  ABUTH herbicidal rating: 4.0
ABUTH Velvetleaf [8]; rate 0.062 kg/ha
  ABUTH herbicidal rating: 9.0
ABUTH Velvetleaf [8]; rate 0.125 kg/ha
  ABUTH herbicidal rating: 9.0
GALAP Galium [9]; rate 0.016 kg/ha
  GALAP herbicidal rating: 0.0
GALAP Galium [9]; rate 0.032 kg/ha
  GALAP herbicidal rating: 0.0
GALAP Galium [9]; rate 0.062 kg/ha
  GALAP herbicidal rating: 0.0
GALAP Galium [9]; rate 0.125 kg/ha
  GALAP herbicidal rating: 0.0
[10]; 0.008 kg/ha
  Postemergence herbicidal rating CHEAL: 2.0
[10]; 0.016 kg/ha
  Postemergence herbicidal rating CHEAL: 2.0
[10]; 0.032 kg/ha
  Postemergence herbicidal rating CHEAL: 4.0
[10]; 0.062 kg/ha
  Postemergence herbicidal rating CHEAL: 5.0
GALAP Galium [11]; 0.008 kg/ha
  Postemergence herbicidal rating GALAP: 0.0
GALAP Galium [11]; 0.016 kg/ha
  Postemergence herbicidal rating GALAP: 1.0
GALAP Galium [11]; 0.032 kg/ha
  Postemergence herbicidal rating GALAP: 3.0
GALAP Galium [11]; 0.062 kg/ha
  Postemergence herbicidal rating GALAP: 3.0
ECHOG Barnyardgrass [12]; rate 0.016 kg/ha
  ECHCG herbicidal rating: 0.0
ECHOG Barnyardgrass [12]; rate 0.032 kg/ha
  ECHCG herbicidal rating: 0.0
ECHOG Barnyardgrass [12]; rate 0.062 kg/ha
  ECHCG herbicidal rating: 0.0
ECHOG Barnyardgrass [12]; rate 0.125 kg/ha
  ECHCG herbicidal rating: 4.0
AMBEL Ragweed, Common [13]; 0.008 kg/ha
  Postemergence herbicidal rating AMBEL: 7.0
AMBEL Ragweed, Common [13]; 0.016 kg/ha
  Postemergence herbicidal rating AMBEL: 9.0
AMBEL Ragweed, Common [13]; 0.032 kg/ha
  Postemergence herbicidal rating AMBEL: 9.0
AMBEL Ragweed, Common [13]; 0.062 kg/ha
  Postemergence herbicidal rating AMBEL: 9.0
CASOB Sicklepod [14]; rate 0.016 kg/ha
  CASOB herbicidal rating: 0.0
CASOB Sicklepod [14]; rate 0.032 kg/ha
  CASOB herbicidal rating: 0.0
CASOB Sicklepod [14]; rate 0.062 kg/ha
  CASOB herbicidal rating: 0.0
GLXMAW Soybean, Williams [15]; 0.008 kg/ha
  Postemergence herbicidal rating GLXMAW: 5.5
GLXMAW Soybean, Williams [15]; 0.016 kg/ha
  Postemergence herbicidal rating GLXMAW: 7.5
GLXMAW Soybean, Williams [15]; 0.032 kg/ha
  Postemergence herbicidal rating GLXMAW: 8.0
GLXMAW Soybean, Williams [15]; 0.062 kg/ha
  Postemergence herbicidal rating GLXMAW: 8.0
GLXMAW Soybean, Williams [16]; rate 0.016 kg/ha
  GLXMAW herbicidal rating: 0.0
GLXMAW Soybean, Williams [16]; rate 0.032 kg/ha
  GLXMAW herbicidal rating: 0.0
GLXMAW Soybean, Williams [16]; rate 0.062 kg/ha
  GLXMAW herbicidal rating: 2.0
GLXMAW Soybean, Williams [16]; rate 0.125 kg/ha
  GLXMAW herbicidal rating: 2.0
ORYSAT Rice, Tebonnet [17]; 0.008 kg/ha
  Postemergence herbicidal rating ORYSAT: 1.5
ORYSAT Rice, Tebonnet [17]; 0.016 kg/ha
  Postemergence herbicidal rating ORYSAT: 2.5
ORYSAT Rice, Tebonnet [17]; 0.032 kg/ha
  Postemergence herbicidal rating ORYSAT: 7.0
ORYSAT Rice, Tebonnet [17]; 0.062 kg/ha
  Postemergence herbicidal rating ORYSAT: 8.0
ORYSAT Rice, Tebonnet [18]; rate 0.016 kg/ha
  ORYSAT herbicidal rating: 0.0
ORYSAT Rice, Tebonnet [18]; rate 0.032 kg/ha
  ORYSAT herbicidal rating: 0.0
ORYSAT Rice, Tebonnet [18]; rate 0.062 kg/ha
  ORYSAT herbicidal rating: 3.0
ORYSAT Rice, Tebonnet [18]; rate 0.125 kg/ha
  ORYSAT herbicidal rating: 4.0
SETVI Foxtail, Green [19]; rate 0.016 kg/ha
  SETVI herbicidal rating: 0.0
SETVI Foxtail, Green [19]; rate 0.032 kg/ha
  SETVI herbicidal rating: 0.0
SETVI Foxtail, Green [19]; rate 0.062 kg/ha
  SETVI herbicidal rating: 0.0
SETVI Foxtail, Green [19]; rate 0.125 kg/ha
  SETVI herbicidal rating: 9.0
ZEAMX Corn, Field [20]; 0.008 kg/ha
  Postemergence herbicidal rating ZEAMX: 6.5
ZEAMX Corn, Field [20]; 0.016 kg/ha
  Postemergence herbicidal rating ZEAMX: 8.0
ZEAMX Corn, Field [20]; 0.032 kg/ha
  Postemergence herbicidal rating ZEAMX: 8.0
ZEAMX Corn, Field [20]; 0.062 kg/ha
  Postemergence herbicidal rating ZEAMX: 9.0
ZEAMX Corn, Field [21]; rate 0.016 kg/ha
  ZEAMX herbicidal rating: 0.0
ZEAMX Corn, Field [21]; rate 0.032 kg/ha
  ZEAMX herbicidal rating: 0.0
ZEAMX Corn, Field [21]; rate 0.062 kg/ha
  ZEAMX herbicidal rating: 0.0
ZEAMX Corn, Field [21]; rate 0.125 kg/ha
  ZEAMX herbicidal rating: 0.0
AMBEL Ragweed, Common [22]; rate 0.016 kg/ha
  AMBEL herbicidal rating: 0.0
AMBEL Ragweed, Common [22]; rate 0.032 kg/ha
  AMBEL herbicidal rating: 0.0
AMBEL Ragweed, Common [22]; rate 0.062 kg/ha
  AMBEL herbicidal rating: 0.0
AMBEL Ragweed, Common [22]; rate 0.125 kg/ha
  AMBEL herbicidal rating: 7.0
[23]; rate 0.016 kg/ha
  TRZAWR herbicidal rating: 0.0
[23]; rate 0.032 kg/ha
  TRZAWR herbicidal rating: 0.0
[23]; rate 0.062 kg/ha
  TRZAWR herbicidal rating: 0.0
[23]; rate 0.125 kg/ha
  TRZAWR herbicidal rating: 1.0
[24]; rate 0.016 kg/ha
  IPOHE herbicidal rating: 0.0
[24]; rate 0.032 kg/ha
  IPOHE herbicidal rating: 0.0
[24]; rate 0.062 kg/ha
  IPOHE herbicidal rating: 0.0
[24]; rate 0.125 kg/ha
  IPOHE herbicidal rating: 9.0
